Assay [1] has as its target T1, Parkin ligase (Homo sapiens, UniProt O60260).
T1 construct: Enzyme: Parkin-His tagged 203 μM (10.5 mg/ml)
T1 sequence (O60260 1-465): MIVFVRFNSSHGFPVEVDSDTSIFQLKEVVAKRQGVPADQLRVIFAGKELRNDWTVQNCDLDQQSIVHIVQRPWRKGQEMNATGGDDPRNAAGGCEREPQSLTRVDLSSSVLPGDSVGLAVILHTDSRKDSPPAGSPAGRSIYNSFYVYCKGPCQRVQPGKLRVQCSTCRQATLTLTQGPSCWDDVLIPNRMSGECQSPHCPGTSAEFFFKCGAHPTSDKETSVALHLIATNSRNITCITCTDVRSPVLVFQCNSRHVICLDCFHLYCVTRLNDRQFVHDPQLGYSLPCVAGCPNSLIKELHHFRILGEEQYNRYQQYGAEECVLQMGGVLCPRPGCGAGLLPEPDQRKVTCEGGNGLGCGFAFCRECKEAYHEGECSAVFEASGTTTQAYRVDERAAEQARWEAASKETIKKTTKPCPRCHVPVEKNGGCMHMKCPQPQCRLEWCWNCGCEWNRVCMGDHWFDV
Briefly: Tandem mass spectrometry of Parkin ligase incubated with compound, after proteolytic digestion. The class given is binding. As to conditions: tandem mass spectrometry of proteolytic fragments. As to the method: Parkin ligase was incubated with AH007 compound, and the mixture was then subject to tandem mass spectometry analysis after proteolytic digestion to produce fragments of Parkin ligase. […] Compound An2H07 is also fragmented when analyzed by mass spectrometry. Therefore, characteristic pieces of the compound AH007 that are attached to specific residues of Parkin can also be identified. These fragments were characterized for alterations in fragment size indicative of bound small molecule of the predicted molecular weight of AH007. The mass spectrometry data identified three specific fragments of AH007 at two specific residues of Parkin ligase. The data identified a fragment of 253.08-256.09 of AH007 compound attached to cysteine residue 377 of Parkin ligase (C377) and a fragment of 343.14-346.14 of AH007 compound attached to C377. The data also identified a fragment of 253.08-256.09 of AH007 compound attached to cysteine residue 59 of Parkin ligase (C59). […] It is also believed that at least C377 is included in ZnF domains of human Parkin Ligase, and thus accords with the theory that cysteine residues in the flexible Parkin ligase ZnF domains are vulnerable for attachment and/or interruption by small molecule candidates. Peptide fragments of Parkin comprising C59 and/or C377 will be useful to design further binding assays and selection of additional modulating agents.

In assay [2] the target is T2, Parkin ligase (Homo sapiens, UniProt O60260).
T2 construct: Enzyme 3: Parkin-His tagged 203 μM (10.5 mg/ml) Supplied by An2H
Briefly: Parkin pUB auto-ubiquitinylation assay (TR-FRET). Type of assay: biochemical. The note with it: for Parkin activity in an auto-ubiquitination assay: pUb activated Parkin, E1-E2 cascade, TR-FRET signal, FIG. 3, FIG. 5. From the text: A Parkin pUB Auto-ubiquitinylation Assay is used to evaluate a candidate compound's potency to activate Parkin's ability to Auto-ubiquitinylate itself.
The principle of this assay is that the E3 Ligase Parkin catalyzes the transfer of Ubiquitin to target proteins, but also has the ability to auto-ubiquitinylate itself. The phospho-Ubiquition (pUb) added to the assay alters the Parkin to a state where small molecule activators can enable the Parkin to auto-ubiquitinylate though the E1-E2 cascade reaction. The use of a Eu cryptate Ubiquition and anti 6His-d2 that binds to the His tagged Parkin will give a signal when the Eu cryptate Ubiquition is auto-ubiquitinylate onto the Parkin which can be monitored by TR-FRET.
Similar to the Activity-based probe assay in Examples 2 and 3, screening for activating compounds can be distinguished from the controls as follows: • 100% activation signal=pUb activated Parkin+40 nM control activator in DMSO. • 0% activation signal=pUb activated Parkin+DMSO only. • Parkin activators can be identified by an increase of the 0% activation signal TR-FRET signal. […]
Assay Procedure: • 1) Load assay plate wells with 4.9 μl 400.0 nM Parkin, 800 nM pUb in reaction buffer by use of Bravo. • 2) Deliver 0.1 μl 100× activator candidates in DMSO by use of HP D-300 compound dispenser. […] Add each compound and control in duplicate wells. • 3) Spin 1000 rpm, 2 minutes, at room temp. • 4) Incubate plate for 15 minutes at room temp. • 5) Add 5 μl 10 nM E1, 100 nM E2, 17.6 nM Ubiquitin Eu and 2 mM ATP in Reaction Buffer by use of Bravo. • 6) Spin 1000 rpm, 2 minutes, at room temp. • 7) Incubate plate for 120 minutes at room temp. • 8) Add 10 μl 13.4 nM anti his d2 in detection buffer by use of Bravo. • 9) Spin 1000 rpm, 2 minutes, at room temp. • 10) Incubate plate for 60 minutes at room temp. • 11) Read plates on Perkin Elmer Envision instrument.
(§1) Data Analysis: The Data can be read in CSV files. […]

In assay [3] the target is T1, Parkin ligase. Briefly: Activity-based probe assay using a ubiquitin vinyl sulfone probe (TR-FRET). As to conditions: heat activated Parkin, HA-Ub-VS probe, TR-FRET signal; FIG. 1, FIG. 2. The class given is biochemical. The procedure:
A Ubiquitin vinyl sulfone probe can be used that irreversibly binds to the active site cysteine of Parkin ligase. Covalent attachment of the probe to the Parkin can be monitored by TR-FRET. Candidate activator compounds can be identified by increasing the activity of Parkin ligase due to an increase in TR-FRET signal. Screening for activating compounds can be distinguished from the controls as follows: • 100% activation signal=Heat activated Parkin+100 nM control activator in DMSO. 0% activation signal=Heat activated Parkin+DMSO only. Parkin activators can be identified by an increase of the 0% activation signal TR-FRET signal. […]
as §1

Each structure is given as a SMILES string.

As to `Cc1nc2c(-c3ccccc3)c(C)nn2c(S)c1Cc1ccccc1` [AH007, 6-benzyl-2,5-dimethyl-3-phenylpyrazolo[1,5-a]pyrimidine-7-thiol], the “binding residues of Parkin ligase for the compound” value on Parkin ligase [1] is “binds and/or attaches to two specific sites in Parkin ligase: C59 and C377”. Further, the “Parkin activity in an auto-ubiquitination assay” value at Parkin ligase [2] is “increases Parkin activity”. The “Parkin Ligase reaction with the Activity-based Ubiquitin vinyl sulfone probe” value at Parkin ligase [3] is listed as “increases the Parkin Ligase reaction”.
As for `O=C(Nc1nc(NC(=O)c2ccccc2)n(-c2ccccc2)n1)c1ccccc1` [AH001, N,N′-(1-phenyl-1H-1,2,4-triazole-3,5-diyl)dibenzamide], the “parkin activation in an auto-ubiquitination assay, compound with pUB” value on Parkin ligase [2] (compound together with pUB, FIGS. 4A and 4B) was “synergistically increases parkin activation”. In addition, on Parkin ligase [2], the “Parkin activity in an auto-ubiquitination assay” value is reported as “increases Parkin activity”. Also, the “Parkin Ligase reaction with the Activity-based Ubiquitin vinyl sulfone probe” value on Parkin ligase [3] is “increases the Parkin Ligase reaction”.

For the origin of these results see patent US10155936B2, “Parkin ligase activation methods and compositions” (An2H Discovery Limited, priority 2014, dated 2018).
